Assay results from patent US6958340B2, “Tyrosine kinase inhibitors” (Merck & Co., Inc., priority 2001, dated 2005).

Compound: Cc1cc(C)cc(Nc2nccc(-n3ccnc3-c3ccccc3)n2)c1 [Compound 1-24, N-(3,5-dimethylphenyl)-4-(2-phenyl-1H-imidazol-1-yl)pyrimidin-2-amine]
- melting point: 183 °C
